Assay in all cases: inhibition of tumour cell growth, NCI panel, 48 h
Assay [1] has as its system HT29 colon.
In assay [2] the test system is SK-MEL-5 melanoma.
Assay [3] concerns OVCAR-5 ovarian.
The subject of assay [4] is SNB-75 CNS.
For assay [5], the system named is NCI-H522 lung.
Assay [6] relates to PC-3 prostate.
Assay [7] relates to A498 renal.
In assay [8] the test system is COLO 205 colon.
Assay [9] deals with IGROV1 ovarian.
The subject of assay [10] is CCRF-CEM leukemia.

The source of these data is PubChem BioAssay (NCI).

Several values for one entry are separate records, joined by “and”; a condition that tells them apart may be missing. Identical values can stand only once.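 Assay format: 96-well plates, 48-hour exposure. GI50 is the concentration that inhibits growth by half. TGI is the concentration that stops growth completely.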 Where only a bound is given, the exact number is not on record here.

Take `O=Cc1cccc2c1Oc1c(cccc1C(=O)O)S2`: the TGI in assay [1], in assay [2], in assay [3], in assay [4], in [5] and in assay [6] was over 100 µM throughout. For the same compound, the figures for the TGI in [7], in assay [8] and in assay [9] were over 100 µM, 55.6 µM and over 100 µM, respectively.

Regarding `C=C(Nc1ccc([N+](=O)[O-])cc1[N+](=O)[O-])c1c/c(=N\NC(N)=S)c2ccccc2o1`, the TGI in [1], in [2], in assay [3], in assay [4], in [5] and in assay [6] was over 100 µM throughout. Besides, the TGI in assay [10], in [8] and in [9] was over 100 µM each time.

As to `COc1cccc(/C=C/C(=O)c2ccc(Cl)cc2Cl)c1`, the GI50 is 15.1 µM in [1]; 9.38 µM in [2]; 13.6 µM in assay [3]; 13.9 µM in assay [4]; 18 µM in assay [5]; 8.92 µM in assay [6]. The GI50 in assay [7] was 11.9 µM; in [8], 8.85 µM; in [9] it was 15 µM. For the same compound, the TGI was over 50 µM in assay [1]; 17.6 µM in assay [2]; 43.7 µM in assay [3]; 36.7 µM in assay [4]; over 50 µM in assay [5]; 20.9 µM in assay [6]. Further, the values for the TGI in [7], in assay [8] and in assay [9] were 21 µM, 18.4 µM and over 50 µM, respectively.

Take `CCOC(=N)CC(=O)c1ccccc1`: the TGI in assay [1], in assay [2], in assay [3], in [4], in assay [5] and in assay [7] was over 100 µM throughout. In addition, the TGI in assay [10], in assay [8] and in assay [9] was over 100 µM each time.

In the case of `N#CC1=C(N)NC(N2CCOCC2)=NC12Nc1ccccc1N2`, the GI50 in assay [1] is 32.6 µM; in [2], 15 µM; in assay [3], 42.7 µM; in assay [4], over 100 µM; in assay [5] it was 23.5 µM; in [6], 46.1 µM. For the same compound, the GI50 in [10] was over 100 µM; in assay [8], 24.1 µM; in assay [9] it was 2.15 µM. Moreover, the TGI in [1] is over 100 µM; in [2] it was 32 µM; in assay [3], over 100 µM; in assay [4], over 100 µM; in assay [5] it was 59.3 µM; in assay [6] it was over 100 µM. For the same compound, the TGI in [10] was over 100 µM; in assay [8], over 100 µM; in assay [9] it was 23.8 µM.

As to `Cc1cn2c(/C=N/N=C(N)N)c(-c3cccs3)nc2s1`, the GI50 in [1] is 2.1 µM; in [2], 0.376 µM; in assay [3], 2.37 µM; in assay [5], 16.9 µM; in [6], 2.99 µM; in assay [10], 1.34 µM. Moreover, the GI50 is 8.16 µM in assay [8] and 10.5 µM in [9]. Also, the TGI worked out at 7.14 µM in assay [1]; 2.19 µM in [2]; 7.37 µM in assay [3]; 47.9 µM in [5]; 12.4 µM in [6]; 3.24 µM in assay [10]. The figures for the TGI in assay [8] and in assay [9] were 69.4 µM and 27.1 µM, respectively.

On to `COC(=O)Cc1ccc(Oc2cnc3cc(F)c(F)cc3n2)cc1`, for which the GI50 in assay [1] is 58.1 µM; in assay [2], 32 µM; in assay [3], over 100 µM; in [4], over 100 µM; in [5] it was over 100 µM; in assay [6], 63.7 µM. Besides, the GI50 in assay [10] was 44.2 µM; in [8], over 100 µM; in [9], over 100 µM. The TGI in [1], in [2], in [3], in assay [4], in [5] and in assay [6] was over 100 µM each time. The TGI in assay [10], in [8] and in assay [9] was over 100 µM throughout.

Take `Cc1cc(N(CCC#N)S(C)(=O)=O)ccc1C=Nc1ccc(C(=O)NN2C(=O)/C(=C/c3ccc(N(CCC#N)CCC#N)cc3C)N=C2c2cc([N+](=O)[O-])ccc2Cl)cc1`: the TGI in assay [1], in [2], in assay [3], in [4], in assay [5] and in [7] was over 100 µM each time. In addition, the TGI in [10], in assay [8] and in assay [9] was over 100 µM in each case.

For the compound `CCc1cccc(CC)c1NC(=O)C1=C(C)NC(C)=C(C(=O)Nc2c(CC)cccc2CC)C1c1ccc([N+](=O)[O-])cc1`, the TGI in [1] was 40 µM; in [2], 33 µM; in [3], over 100 µM; in assay [4] it was over 100 µM; in [5], 40.2 µM; in [7], 64 µM. Besides, the TGI in assay [10] was 45.8 µM; in assay [8] it was 54.5 µM; in assay [9], 52.4 µM.

For the compound `N#C/C(=C1\SC(N=Nc2ccccc2)C(=O)N1c1ccccc1)c1nc2ccccc2[nH]1` (stereo unspecified), the TGI in assay [1], in assay [2], in [3], in assay [4], in assay [5] and in [7] was over 100 µM each time. The TGI in assay [10], in assay [8] and in assay [9] was over 100 µM throughout.

For the compound `SCCSCCCSCCS`, the TGI in assay [1], in assay [2], in assay [3], in [4], in [5] and in [6] was over 100 µM throughout. Moreover, the TGI in [10] was 41.5 µM; in [8], over 100 µM; in [9] it was over 100 µM.

Take `CN1C(=O)C(=O)c2cc3c(c4c2c1cc1ccccc14)OCO3`: the TGI in [1], in assay [2], in [3], in [4], in [5] and in assay [7] was over 100 µM throughout. Moreover, the TGI in [10] is over 100 µM; in [8] it was 89.7 µM; in [9] it was over 100 µM.

For the compound `COC(=O)C1[C@H](c2cc(OC)c(OC)c(OC)c2)OC(=O)C1(C(=O)OC)C(=O)c1ccc2c(c1)OCO2` (stereo partly specified), the TGI in assay [1], in assay [2], in [3], in assay [4], in assay [5] and in [7] was over 100 µM in each case. In addition, the TGI in assay [10], in assay [8] and in [9] was over 100 µM throughout.

In the case of `CCCCCCCCCCCCCCCCCC(=O)OCC(COC(=O)CCCN)OC(=O)CCCN` (stereo unspecified), the TGI was 33.5 µM in assay [1]; 29.4 µM in assay [3]; over 100 µM in assay [4]; 50.4 µM in assay [5]; 35.5 µM in assay [6]; over 100 µM in assay [10]. Besides, the TGI in assay [8] came out at 31.1 µM; in [9], 8.01 µM.

For `CO[C@H](C(=O)[C@@H](O)[C@@H](C)O)[C@@H]1Cc2cc3cc(OC4CC(OC5CC(O)C(O)C(C)O5)C(O)C(C)O4)c(C)c(O)c3c(O)c2C(=O)[C@H]1OC1CC(OC2CC(OC3CC(C)(O)C(O)C(C)O3)C(O)C(C)O2)C(O)C(C)O1` (stereo partly specified), the GI50 in assay [1] was 0.029 µg/mL and 0.0205 µg/mL; in assay [2] it was 0.0199 µg/mL; in [3] it was 0.0328 µg/mL and 0.113 µg/mL; in assay [4], 0.0141 µg/mL and 0.0224 µg/mL; in assay [5] it was 0.0143 µg/mL and 0.0124 µg/mL; in assay [7], 0.0084 µg/mL and 0.0164 µg/mL. The GI50 is 0.0386 µg/mL and 0.0314 µg/mL in assay [10]; 0.0144 µg/mL and 0.0182 µg/mL in [8]; 0.0472 µg/mL and 0.0289 µg/mL in assay [9].

On to `CCn1c(-c2cc3ccccc3cc2O)nn(C(=O)c2c(Cl)cccc2Cl)c1=S`, for which the GI50 was over 50 µM in assay [1]; 10 µM in [2]; over 50 µM in assay [3]; 42.5 µM in [4]; 21.6 µM in [5]; over 50 µM in assay [6]. The results for the GI50 in [10], in assay [8] and in assay [9] were 27.1 µM, 40.3 µM and 6.63 µM, respectively. Besides, the TGI in assay [1] is over 50 µM; in assay [2], 19.7 µM; in assay [3] it was over 50 µM; in assay [4] it was over 50 µM; in [5] it was over 50 µM; in assay [6], over 50 µM. In addition, the TGI in [10] was over 50 µM; in assay [8], over 50 µM; in assay [9], 16.6 µM.

As to `O=c1c(Cl)c(Cl)c(=O)c2sc3cc(Cl)ccc3[nH]c1=2`, the TGI in [1] was over 100 µM; in assay [2], over 100 µM; in assay [3], over 100 µM; in assay [4], over 100 µM; in assay [5], 35.2 µM; in [6], over 100 µM. Besides, the TGI in assay [7], in assay [8] and in assay [9] was over 100 µM in each case.

As for `CC/C(CC(=O)CCC(=O)Nc1ccccc1[N+](=O)[O-])=N/NC(=O)C[n+]1ccccc1`, the TGI in assay [1], in [2], in assay [3], in assay [4], in [5] and in assay [7] was over 100 µM in each case. Also, the TGI in assay [10], in assay [8] and in assay [9] was over 100 µM throughout.

Consider `CC1=NN(C(=O)c2ccc([N+](=O)[O-])cc2)C(=O)C1N=Nc1ccccc1C(=O)O` (stereo unspecified), for which the TGI in assay [1], in assay [2], in assay [3], in assay [4], in assay [5] and in assay [7] was over 100 µM throughout. Further, the TGI in [10], in assay [8] and in assay [9] was over 100 µM each time.

`O=[N+]([O-])C1Cc2ccccc2OC1c1ccccc1` (stereo unspecified): the TGI is over 100 µM in [1]; over 100 µM in assay [2]; over 100 µM in [3]; 55.5 µM in [4]; over 100 µM in assay [5]; over 100 µM in [7]. Besides, the TGI in assay [10], in [8] and in [9] was over 100 µM throughout.

For `Cc1cc(N2CCSCC2)nc(NC2CCCC(Nc3ccnc4cc(Cl)ccc34)C2)n1` (stereo unspecified), the GI50 in assay [1] is 1.61 µM; in assay [2], 1.72 µM; in assay [3], 2.88 µM; in [4] it was 1.28 µM; in [6] it was 2.1 µM; in assay [7], 2.07 µM. For the same compound, the GI50 in assay [10] is 2.62 µM; in assay [9], 1.97 µM. In addition, the TGI in assay [1] was 3.98 µM; in assay [2] it was 3.11 µM; in [3] it was 14.1 µM; in [4], 2.94 µM; in assay [6], 4.52 µM; in assay [7], 4.64 µM. Also, the results for the TGI in assay [10] and in assay [9] were 10.9 µM and 5.39 µM, respectively.

In the case of `CCc1cc(CCC(=O)Nc2c(C)cccc2C)[nH]n1`, the TGI in [1], in assay [2], in [3], in assay [4], in [5] and in assay [7] was over 100 µM in each case. The TGI in assay [10], in assay [8] and in assay [9] was over 100 µM each time.

On to `O=c1c2cccc3cccc(c4n1CCN=4)c32`, for which the TGI in assay [1], in [2], in [3], in assay [4], in assay [5] and in assay [7] was over 100 µM in each case. For the same compound, the TGI in assay [10], in assay [8] and in [9] was over 100 µM throughout.
